Key:
[1] = system: CAR transgenic Th1 clones; test: IL-2 production by CAR transgenic Th1 clones overexpressing DGK isoforms; type: cell-based, mouse
Procedure: Adenoviral vectors. The CA H-Ras mutant Ras61L cDNA was provided by Dr. F. Fitch (University of Chicago). Construction of recombinant adenoviral vectors was performed using a two-cosmid system protocol described by Wang et al. (2000). Briefly, a gene expression unit containing a human ubiquitin promoter and either HRas61L, GFP, DGKα, kinase-dead DGKα, DGKζ, or no cDNA was inserted into a left-end plasmid, pLEP. pLEPUb-Ras61L and the right-end-plasmid, pREP, containing the E-deleted adenovirus type 2 (Ad2) genome, were digested, ligated and resulting cosmids were packaged into lambda phages. The DGKα kinase-dead DGKα, and DGKζ inserts also have a myc epitope tag. Competent bacteria were transduced with lambda phages and double selection of growing colonies was performed on Amp/Tet plates. Recombinant adenoviruses were then generated by transfection of 293 cells with purified, linearized adenoviral vector DNA. High titer stock solutions were obtained by large-scale infection of 293 cells followed by cesium chloride purification of complete viral particles. Plaque forming units (pfu) of virus preparations were determined by TCID 50 method (AdEasy Vector Systems Manual, Quantum Biotechnologies, Canada). Working solutions of adenoviral vectors were diluted in storage buffer (Nyberg-Hoffman and Aguilar-Cordova, 1999), and stored at −80° C. until needed. […]

anergic Th1 cells [2] = test: Toxicity of the DGK inhibitor to anergic Th1 cells; type: cell-based, mouse; conditions: higher concentrations (data not shown)
Text: If increased DGK activity is contributing to diminished Ras activation and IL-2 production in the anergic state, then inhibition of this enzyme should result in increased IL-2 production by anergic cells. To explore this possibility, the pharmacologic inhibitor R59022 was employed (Jiang et al., 2000). […] Approximately 40% of this IL-2 production was recovered by stimulation with PMA+Ionomycin, arguing that that proportion was mediated by a proximal signaling defect.

anergic Th1 cells [3] = test: IL-2 production by anergic Th1 clone pGL10 (ELISA); type: cell-based, mouse
Text: (§1) Induction of T cell anergy.

DGKα = DGKα (Homo sapiens, UniProt P23743); conditions: cited from earlier work
anergic CAR Tg Th1 cells = test: IL-2 production by anergic CAR Tg Th1 cells (ELISA); type: cell-based, mouse; conditions: stimulated with anti-CD3/anti-CD28 beads
Text: Induction of T cell anergy. […] Adenoviral transduction of […] cells. […] T cell activation.

DGK-ζ mRNA = test: Semi-quantitative RT-PCR of DGK-ζ mRNA in pGL10 cells; type: cell-based, mouse; conditions: pGL10 cells treated with ionomycin
Procedure: as §1
(§2) RT-PCR. Total RNA was extracted using Trizol, and cDNA was generated using oligo-dT as a primer. PCR™ was done with titrated doses of cDNA using primers specific for the following genes: […]
(§3) Between 36 and 39 cycles were performed at an annealing temperature of 55° C. Products were visualized on ethidium bromide-stained 1% agarose gels.

Egr2 mRNA = test: Semi-quantitative RT-PCR of Egr2 mRNA in pGL10 cells; type: cell-based, mouse; conditions: pGL10 cells treated with ionomycin
Procedure: as §1, §2, §3

DGKα, sequence (P23743 whole entry, species assumed): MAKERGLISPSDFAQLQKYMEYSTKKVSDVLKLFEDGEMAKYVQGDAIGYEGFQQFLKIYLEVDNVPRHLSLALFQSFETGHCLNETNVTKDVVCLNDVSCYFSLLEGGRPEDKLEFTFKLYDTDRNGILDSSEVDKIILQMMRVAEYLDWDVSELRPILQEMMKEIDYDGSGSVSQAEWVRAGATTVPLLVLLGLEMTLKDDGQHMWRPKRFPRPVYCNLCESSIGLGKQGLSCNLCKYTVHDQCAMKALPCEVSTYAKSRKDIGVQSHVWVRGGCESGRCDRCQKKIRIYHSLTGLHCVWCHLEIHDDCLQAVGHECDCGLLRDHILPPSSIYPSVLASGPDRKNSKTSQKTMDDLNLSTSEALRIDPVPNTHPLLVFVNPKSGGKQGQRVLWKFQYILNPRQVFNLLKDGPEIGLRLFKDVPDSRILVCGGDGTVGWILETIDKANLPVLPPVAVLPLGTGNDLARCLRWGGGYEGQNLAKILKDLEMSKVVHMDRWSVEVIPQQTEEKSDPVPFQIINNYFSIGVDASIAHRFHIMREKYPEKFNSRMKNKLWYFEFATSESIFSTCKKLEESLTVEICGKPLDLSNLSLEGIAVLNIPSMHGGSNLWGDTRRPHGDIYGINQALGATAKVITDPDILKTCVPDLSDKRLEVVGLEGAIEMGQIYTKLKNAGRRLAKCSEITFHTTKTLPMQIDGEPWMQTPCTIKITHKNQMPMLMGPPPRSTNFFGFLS

CCCCCCCCCCCCCC(=O)O[C@@H]1[C@@H](C)[C@@]2(O)[C@@H](C=C(CO)C[C@]3(O)C(=O)C(C)=C[C@@H]23)[C@@H]2C(C)(C)[C@]12OC(C)=O [PMA]
IL-2 production on addition of exogenous PMA ([1]; cells transduced to express DGKα): restored IL-2 production
IL-2 production on addition of exogenous PMA ([1]; cells transduced to express DGKζ): restored IL-2 production

Cc1nc2sccn2c(=O)c1CCN1CCC(=C(c2ccccc2)c2ccc(F)cc2)CC1 [R59022, 6-[2-(4-[(4-fluorophenyl)phenyl-methylene]-1-piperidinyl)ethyl]-7-methyl-5H-thiazolo[3,2-]pyrimidine-5-one]
toxicity to the cells (anergic Th1 cells [2]): toxic to the cells
recovery of IL-2 production (anergic Th1 cells [3]; anergic Th1 clone pGL10 stimulated with anti-CD3+anti-CD28, increasing concentrations, 25 min pre-incubation, ELISA): significant recovery of IL-2 production in a dose-dependent fashion
cytokine release by the inhibitor alone (anergic Th1 cells [3]; anergic cells, no anti-CD3/anti-CD28 stimulation (data not shown)): did not induce detectable cytokine release
DGK isoform preference (DGKα): preferentially inhibits DGKα
IL-2 production (anergic CAR Tg Th1 cells): partially restored IL-2 production

C[C@H](CCC(=O)O)C[C@H](C)C[C@H](C)C(=O)/C=C(\O)[C@H](C)C[C@H](C)C/C=C/[C@@H](C)[C@@H](O)[C@@H](C)[C@@H](O)C[C@@H]1CC[C@@](C)([C@H]2CC[C@@](C)([C@@H](C)O)O2)O1 [ionomycin]
expression of DGK-ζ mRNA (DGK-ζ mRNA): upregulated
Egr2 mRNA (Egr2 mRNA): only a minimal increase

— US7381401B2, “T cell anergy is reversed by active Ras and regulated by diacylglycerol kinase” (The University of Chicago, priority 2004, dated 2008)
